Among the data in patent publication US10669269B2, “Substituted N-(1H-indazol-4-yl)imidazo[1,2-a]pyridine-3-carboxamide compounds as type III receptor tyrosine kinase inhibitors” (ARRAY BIOPHARMA INC., priority 2010, dated 2020) are IC50 values, retold here.

One assay has as its target T1, c-KIT (Homo sapiens, UniProt P10721).
T1 construct: M-07e cells (human acute megakaryoblastic leukemia cell line) were serum-starved for 4 hours; endogenous in cells; host or cells: M-07e cells (human acute megakaryoblastic leukemia cell line)
Description: c-KIT Cell-Based Assay (Example D). The settings on record: averaged IC50; phospho-c-KIT in M-07e cells stimulated with 150 ng/ml recombinant human SCF; read-out: cKIT Cell ELISA IC50. In short, it runs like this:
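Phospho-c-KIT ELISA readout, calibrated with purified phospho-SCF R, gave IC50 (4-parameter fit, 50% of control). Before lysis, M-07e cells were starved 4 h, exposed 1 h to a 9-point 3-fold series (highest usually 5,000 nM), and stimulated with 150 ng/ml SCF for 4 min.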
For orientation: In an ELISA, binding on a coated surface is turned into a signal by an enzyme label.

The target of a further assay is T2, cFMS (Homo sapiens, UniProt P07333).
T2 construct: THP-1 cells (human acute monocytic leukemia cell line) were serum-starved for 4 hours; endogenous in cells; host or cells: THP-1 cells (human acute monocytic leukemia cell line)
T2 sequence (P07333 20-972): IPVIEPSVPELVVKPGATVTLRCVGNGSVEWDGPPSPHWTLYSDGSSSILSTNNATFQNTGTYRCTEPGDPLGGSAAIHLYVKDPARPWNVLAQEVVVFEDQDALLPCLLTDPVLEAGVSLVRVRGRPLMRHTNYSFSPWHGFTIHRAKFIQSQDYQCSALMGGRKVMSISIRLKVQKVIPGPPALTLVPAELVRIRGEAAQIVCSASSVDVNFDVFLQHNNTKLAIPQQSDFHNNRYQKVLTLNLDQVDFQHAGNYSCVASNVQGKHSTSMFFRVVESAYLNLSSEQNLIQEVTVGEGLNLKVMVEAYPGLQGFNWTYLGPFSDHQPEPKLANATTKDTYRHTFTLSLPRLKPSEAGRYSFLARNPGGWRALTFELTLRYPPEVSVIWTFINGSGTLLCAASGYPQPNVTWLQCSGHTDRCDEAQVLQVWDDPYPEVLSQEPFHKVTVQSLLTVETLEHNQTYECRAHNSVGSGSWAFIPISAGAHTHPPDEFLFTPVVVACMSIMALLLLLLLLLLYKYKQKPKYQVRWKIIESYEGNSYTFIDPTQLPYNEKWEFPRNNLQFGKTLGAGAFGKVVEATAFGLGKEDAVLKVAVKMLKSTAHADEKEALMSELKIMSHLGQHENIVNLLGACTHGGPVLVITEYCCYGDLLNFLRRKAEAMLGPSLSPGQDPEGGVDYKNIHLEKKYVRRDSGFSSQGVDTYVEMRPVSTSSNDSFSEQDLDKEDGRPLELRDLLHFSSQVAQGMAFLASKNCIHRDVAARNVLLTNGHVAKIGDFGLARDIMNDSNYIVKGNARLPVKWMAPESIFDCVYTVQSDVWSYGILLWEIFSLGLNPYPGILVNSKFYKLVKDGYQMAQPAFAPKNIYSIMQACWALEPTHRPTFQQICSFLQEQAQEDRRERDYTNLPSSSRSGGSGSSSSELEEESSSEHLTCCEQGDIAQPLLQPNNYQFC
In words: cFMS Cell-Based Assay (Example C). The conditions noted are these: averaged IC50; phospho-cFMS in THP-1 cells stimulated with 250 ng/mL recombinant human MCSF; read-out: cFMS Cell ELISA IC50. In short, it runs like this:
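Phosphotyrosine on cFMS, captured from lysates and quantified by ELISA, reads receptor activation after 1 min of 250 ng/mL human MCSF. Beforehand, THP-1 cells were serum-starved for 4 h and exposed to compound for 1 h (9 points, 3-fold, typically up to 5,000 nM). IC50 from a 4-parameter logistic fit as 50 percent of control.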

A further assay addresses T3, PDGFR beta (Homo sapiens, UniProt P09619).
T3 construct: endogenous in cells; host or cells: HS27 human fibroblast cell line
Description: Phospho PDGFR Cell Assay, sandwich ELISA (Example A). The class given is cell-based. The conditions noted are these: averaged IC50, PDGFR beta phosphorylation in HS27 human fibroblast cell line, PDGF-BB stimulation 5 minutes. Here is the method:
Compounds were screened for inhibition of PDGFR beta phosphorylation in the HS27 human fibroblast cell line. Cells were seeded into a 96 well tissue culture plate, then incubated overnight in a 37° C., 5% CO2 incubator. The following day, cells were treated for one hour with test compound dilutions. After stimulation with PDGF-BB ligand for 5 minutes, cells were lysed and added to a sandwich ELISA plate from R&D Systems to detect levels of phospho PDGFR beta. A standard 4-parameter logistic model was fit to the inhibitor dose response curves, with the IC50 being defined as the concentration of inhibitor giving 50 percent of control (POC).

Structures can show the parent of a compound that is named as a salt. Where only a bound is given, the exact number is not on record here.

T3 sequence (P09619 33-1106): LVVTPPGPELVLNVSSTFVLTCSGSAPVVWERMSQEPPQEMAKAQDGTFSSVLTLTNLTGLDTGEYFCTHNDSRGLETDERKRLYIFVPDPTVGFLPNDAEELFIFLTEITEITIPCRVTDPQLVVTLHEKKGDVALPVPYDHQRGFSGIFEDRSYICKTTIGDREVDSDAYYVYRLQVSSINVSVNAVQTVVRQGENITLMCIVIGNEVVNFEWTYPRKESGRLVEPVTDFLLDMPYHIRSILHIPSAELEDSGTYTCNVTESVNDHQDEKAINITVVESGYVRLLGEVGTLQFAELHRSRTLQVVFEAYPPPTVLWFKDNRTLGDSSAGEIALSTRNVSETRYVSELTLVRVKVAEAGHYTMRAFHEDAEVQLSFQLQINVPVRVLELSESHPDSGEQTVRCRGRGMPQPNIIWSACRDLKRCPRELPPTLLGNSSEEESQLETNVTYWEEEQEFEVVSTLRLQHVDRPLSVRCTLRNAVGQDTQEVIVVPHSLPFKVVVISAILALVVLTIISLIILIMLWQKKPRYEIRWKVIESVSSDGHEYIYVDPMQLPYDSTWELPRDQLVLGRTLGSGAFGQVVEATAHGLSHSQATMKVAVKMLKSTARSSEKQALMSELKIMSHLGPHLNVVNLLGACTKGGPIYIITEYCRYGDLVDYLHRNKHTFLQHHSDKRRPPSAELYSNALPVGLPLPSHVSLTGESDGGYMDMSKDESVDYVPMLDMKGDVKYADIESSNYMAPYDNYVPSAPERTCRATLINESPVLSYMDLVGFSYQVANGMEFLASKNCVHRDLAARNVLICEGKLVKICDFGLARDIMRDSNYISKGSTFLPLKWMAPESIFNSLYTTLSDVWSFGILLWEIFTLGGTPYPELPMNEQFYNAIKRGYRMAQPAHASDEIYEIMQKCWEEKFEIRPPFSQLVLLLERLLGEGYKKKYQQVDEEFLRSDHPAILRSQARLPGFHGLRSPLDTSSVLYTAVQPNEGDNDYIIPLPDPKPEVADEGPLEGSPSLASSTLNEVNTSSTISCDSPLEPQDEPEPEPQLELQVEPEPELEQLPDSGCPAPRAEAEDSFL
T1 sequence (P10721 26-976): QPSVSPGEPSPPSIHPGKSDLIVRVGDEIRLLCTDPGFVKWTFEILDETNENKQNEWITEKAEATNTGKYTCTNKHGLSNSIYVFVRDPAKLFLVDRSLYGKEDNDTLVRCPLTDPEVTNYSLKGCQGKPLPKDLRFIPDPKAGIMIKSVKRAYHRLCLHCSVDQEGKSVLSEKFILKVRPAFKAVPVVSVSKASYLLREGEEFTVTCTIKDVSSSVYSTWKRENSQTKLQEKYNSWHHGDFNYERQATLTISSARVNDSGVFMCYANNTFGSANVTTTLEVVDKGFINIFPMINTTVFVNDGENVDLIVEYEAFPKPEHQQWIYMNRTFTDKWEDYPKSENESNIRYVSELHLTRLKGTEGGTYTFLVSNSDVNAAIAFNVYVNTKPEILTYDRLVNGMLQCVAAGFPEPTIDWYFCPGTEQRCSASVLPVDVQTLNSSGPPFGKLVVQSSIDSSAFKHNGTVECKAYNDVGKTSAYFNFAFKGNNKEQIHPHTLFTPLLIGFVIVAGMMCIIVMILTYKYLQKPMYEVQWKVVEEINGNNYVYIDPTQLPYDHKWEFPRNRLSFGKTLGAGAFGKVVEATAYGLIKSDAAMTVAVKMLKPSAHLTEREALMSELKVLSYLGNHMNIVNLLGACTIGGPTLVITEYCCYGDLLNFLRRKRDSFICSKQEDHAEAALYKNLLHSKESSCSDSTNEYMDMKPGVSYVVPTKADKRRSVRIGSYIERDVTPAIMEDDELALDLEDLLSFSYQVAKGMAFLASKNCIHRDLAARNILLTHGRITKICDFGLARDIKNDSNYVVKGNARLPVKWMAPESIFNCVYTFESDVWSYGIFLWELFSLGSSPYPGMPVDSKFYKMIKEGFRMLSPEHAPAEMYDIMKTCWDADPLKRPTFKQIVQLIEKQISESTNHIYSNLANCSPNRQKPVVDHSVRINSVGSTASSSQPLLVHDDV

Regarding `Cc1nn(Cc2cccc(C3CCCC3)n2)c2cccc(NC(=O)c3cnc4cc(OCCN5CCN(C)[C@@H](C)C5)ccn34)c12` [Example 33, (S)—N-(1-((6-cyclopentylpyridin-2-yl)methyl)-3-methyl-1H-indazol-4-yl)-7-(2-(3,4-dimethylpiperazin-1-yl)ethoxy)imidazo[1,2-a]pyridine-3-carboxamide], the concentration for half-maximal inhibition (IC50) (in general, the midpoint of a concentration-inhibition curve) was found to be 22.6 nM on c-KIT, 41.5 nM on cFMS and 65.8 nM on PDGFR beta.
`CC(=O)c1ccn2c(C(=O)Nc3cccc4c3c(C)nn4Cc3cccc(C)n3)cnc2c1` [Example 79, 7-acetyl-N-(3-methyl-1-((6-methylpyridin-2-yl)methyl)-1H-indazol-4-yl)imidazo[1,2-a]pyridine-3-carboxamide]: the 50% inhibitory concentration (IC50) at c-KIT was 4320 nM; on cFMS, 56.9 nM; on PDGFR beta, no less than 1000 nM.
In the same order, the values of `COCCOc1ccn2c(C(=O)Nc3cccc4c3c(C)nn4CC3CCCCO3)cnc2c1` (stereo not drawn) [Example 82, 7-(2-methoxyethoxy)-N-(3-methyl-1-((tetrahydro-2H-pyran-2-yl)methyl)-1H-indazol-4-yl)imidazo[1,2-a]pyridine-3-carboxamide] are 458 nM, 122 nM and 309 nM.
In the case of `Cc1cccc(Cn2nc(C)c3c(NC(=O)c4cnc5cc(O)ccn45)cccc32)n1` [Example 63, 7-hydroxy-N-(3-methyl-1-((6-methylpyridin-2-yl)methyl)-1H-indazol-4-yl)imidazo[1,2-a]pyridine-3-carboxamide], the results for the IC50 at c-KIT, at cFMS and against PDGFR beta were 5000 nM, 47 nM and no less than 1000 nM, respectively.
Turning to `Cc1cccc(Cn2nc(C)c3c(NC(=O)c4cnc5ccc(C#N)cn45)cccc32)n1` [Example 62, 6-cyano-N-(3-methyl-1-((6-methylpyridin-2-yl)methyl)-1H-indazol-4-yl)imidazo[1,2-a]pyridine-3-carboxamide], the values for the half-inhibitory concentration (IC50) at c-KIT, on cFMS and against PDGFR beta were 2450 nM, 257 nM and 886 nM, respectively.
The matching figures for `Cc1cccc(Cn2nc(C)c3c(NC(=O)c4cnc5cc(C(C)O)ccn45)cccc32)n1` (stereo not drawn) [Example 76, 7-(1-hydroxyethyl)-N-(3-methyl-1-((6-methylpyridin-2-yl)methyl)-1H-indazol-4-yl)imidazo[1,2-a]pyridine-3-carboxamide]: 5000 nM, 47 nM and no less than 1000 nM.
Turning to `COCCOc1ccn2c(C(=O)Nc3cccc4c3cnn4CC3CN(C(=O)OC(C)(C)C)CCO3)cnc2c1` (stereo not drawn) [Example 123, tert-butyl 2-((4-(7-(2-methoxyethoxy)imidazo[1,2-a]pyridine-3-carboxamido)-1H-indazol-1-yl)methyl)morpholine-4-carboxylate], the IC50 at c-KIT is 255 nM; at cFMS, 378 nM; at PDGFR beta it was 162 nM.
For the compound `Cc1nn(Cc2cccc(C(C)C)n2)c2cccc(NC(=O)c3cnc4cc(OCCN5CCN[C@@H](C)C5)ccn34)c12` [Example 46, (S)—N-(1-((6-isopropylpyridin-2-yl)methyl)-3-methyl-1H-indazol-4-yl)-7-(2-(3-methylpiperazin-1-yl)ethoxy)imidazo[1,2-a]pyridine-3-carboxamide], the IC50 at c-KIT was 42.5 nM; at cFMS, 22.4 nM; on PDGFR beta, 21.4 nM.
The matching figures for `Cc1cccc(Cn2nc(C)c3c(NC(=O)c4cnc5cc(N6CCCC6)ccn45)cccc32)n1` [Example 54, N-(3-methyl-1-((6-methylpyridin-2-yl)methyl)-1H-indazol-4-yl)-7-(pyrrolidin-1-yl)imidazo[1,2-a]pyridine-3-carboxamide dihydrochloride]: 387 nM, 8.8 nM and 291 nM.
Consider `CCc1cccc(Cn2nc(C)c3c(NC(=O)c4cnc5cc(OCCN6CCN(C)[C@@H](C)C6)ccn45)cccc32)n1` [Example 36, (S)-7-(2-(3,4-dimethylpiperazin-1-yl)ethoxy)-N-(1-((6-ethylpyridin-2-yl)methyl)-3-methyl-1H-indazol-4-yl)imidazo[1,2-a]pyridine-3-carboxamide], for which the half-maximal inhibitory concentration (IC50) at c-KIT came to 119 nM; at cFMS, 12 nM; at PDGFR beta it was 65.6 nM.
In the same order, the values of `CCCc1ccc(Cn2nc(C)c3c(NC(=O)c4cnc5cc(OCCN6CCN(C)[C@@H](C)C6)ccn45)cccc32)nc1` [Example 38, (S)-7-(2-(3,4-dimethylpiperazin-1-yl)ethoxy)-N-(3-methyl-1-((5-propylpyridin-2-yl)methyl)-1H-indazol-4-yl)imidazo[1,2-a]pyridine-3-carboxamide] are 337 nM, 15.4 nM and 253 nM.
In the same order, the values of `CC(C)N1CCN(CCOc2ccn3c(C(=O)Nc4cccc5c4c(Cl)nn5Cc4cccc(C5CC5)n4)cnc3c2)CC1` [Example 21, N-(3-chloro-1-((6-cyclopropylpyridin-2-yl)methyl)-1H-indazol-4-yl)-7-(2-(4-isopropylpiperazin-1-yl)ethoxy)imidazo[1,2-a]pyridine-3-carboxamide] are 46.6 nM, 12 nM and 124 nM.
The matching figures for `Cc1cccc(Cn2nc(C)c3c(NC(=O)c4cnc5cc(C6CCNCC6)ccn45)cccc32)n1` [Example 52, N-(3-methyl-1-((6-methylpyridin-2-yl)methyl)-1H-indazol-4-yl)-7-(piperidin-4-yl)imidazo[1,2-a]pyridine-3-carboxamide tri-hydrochloride]: 5000 nM, 108 nM and no less than 1000 nM.
In the case of `CC(C)N1CCN(CCOc2ccn3c(C(=O)Nc4cccc5c4c(F)nn5Cc4cccc(C5CC5)n4)cnc3c2)CC1` [Example 22, N-(1-((6-cyclopropylpyridin-2-yl)methyl)-3-fluoro-1H-indazol-4-yl)-7-(2-(4-isopropylpiperazin-1-yl)ethoxy)imidazo[1,2-a]pyridine-3-carboxamide], the half-maximal inhibitory concentration (IC50) on c-KIT was determined as 5.2 nM; at cFMS, 6.7 nM; against PDGFR beta, 17.6 nM.
In the same order, the values of `Cc1nn(Cc2cccc(C(C)(C)C)n2)c2cccc(NC(=O)c3cnc4cc(OCCN5CCN(C)[C@@H](C)C5)ccn34)c12` [Example 31, (S)—N-(1-((6-tert-butylpyridin-2-yl)methyl)-3-methyl-1H-indazol-4-yl)-7-(2-(3,4-dimethylpiperazin-1-yl)ethoxy)imidazo[1,2-a]pyridine-3-carboxamide] are 67.1 nM, 102 nM and 335 nM.
The matching figures for `COCCN1CCN(CCOc2ccn3c(C(=O)Nc4cccc5c4c(C)nn5Cc4cccc(C5CC5)n4)cnc3c2)CC1` [Example 20, N-(1-((6-cyclopropylpyridin-2-yl)methyl)-3-methyl-1H-indazol-4-yl)-7-(2-(4-(2-methoxyethyl)piperazin-1-yl)ethoxy)imidazo[1,2-a]pyridine-3-carboxamide]: 76.1 nM, 10.8 nM and 55.9 nM.
For the compound `COCCOc1ccn2c(C(=O)Nc3cccc4c3c(C)nn4CC3CCOCC3)cnc2c1` [Example 83, 7-(2-methoxyethoxy)-N-(3-methyl-1-((tetrahydro-2H-pyran-4-yl)methyl)-1H-indazol-4-yl)imidazo[1,2-a]pyridine-3-carboxamide], the concentration for half-maximal inhibition (IC50) at c-KIT is 5000 nM; on cFMS it was 538 nM; against PDGFR beta, no less than 1000 nM.
For `Cc1nn(Cc2ccc(C(C)C)cn2)c2cccc(NC(=O)c3cnc4cc(OCCN5CCN(C)[C@@H](C)C5)ccn34)c12` [Example 39, (S)-7-(2-(3,4-dimethylpiperazin-1-yl)ethoxy)-N-(1-((5-isopropylpyridin-2-yl)methyl)-3-methyl-1H-indazol-4-yl)imidazo[1,2-a]pyridine-3-carboxamide], the concentration for half-maximal inhibition (IC50) at c-KIT amounted to 188 nM; at cFMS, 35.7 nM; against PDGFR beta it was 68 nM.
With `O=C(Nc1cccc2c1cnn2Cc1ccccc1)c1cnc2ccc(Br)cn12` [Example 155, N-(1-benzyl-1H-indazol-4-yl)-6-bromoimidazo[1,2-a]pyridine-3-carboxamide], the IC50 came to 76.2 nM at c-KIT, 114 nM at cFMS and 282 nM against PDGFR beta.
The matching figures for `Cc1cccc(Cn2nc(C)c3c(NC(=O)c4cnc5cc(-c6ccnn6C)ccn45)cccc32)n1` [Example 71, N-(3-methyl-1-((6-methylpyridin-2-yl)methyl)-1H-indazol-4-yl)-7-(1-methyl-1H-pyrazol-5-yl)imidazo[1,2-a]pyridine-3-carboxamide]: 455 nM, 7.6 nM and 274 nM.
